Experiments:
[1] = target: T1, recombinant human Norepinephrine (NE) transporter (Homo sapiens, UniProt P23975); assay: Functional uptake of NE into cells expressing recombinant human transporters; type: cell-based; details: read-out: IC50 inhibition of functional uptake in human transporters, Norepinephrine (NE)
T1 construct: expressed in transfected cells

M5 = target: T2, M5 (Homo sapiens, UniProt P08912); assay: In vitro radioligand binding assay, M5; details: read-out: Ki, M5
T2 sequence (P08912 1-532): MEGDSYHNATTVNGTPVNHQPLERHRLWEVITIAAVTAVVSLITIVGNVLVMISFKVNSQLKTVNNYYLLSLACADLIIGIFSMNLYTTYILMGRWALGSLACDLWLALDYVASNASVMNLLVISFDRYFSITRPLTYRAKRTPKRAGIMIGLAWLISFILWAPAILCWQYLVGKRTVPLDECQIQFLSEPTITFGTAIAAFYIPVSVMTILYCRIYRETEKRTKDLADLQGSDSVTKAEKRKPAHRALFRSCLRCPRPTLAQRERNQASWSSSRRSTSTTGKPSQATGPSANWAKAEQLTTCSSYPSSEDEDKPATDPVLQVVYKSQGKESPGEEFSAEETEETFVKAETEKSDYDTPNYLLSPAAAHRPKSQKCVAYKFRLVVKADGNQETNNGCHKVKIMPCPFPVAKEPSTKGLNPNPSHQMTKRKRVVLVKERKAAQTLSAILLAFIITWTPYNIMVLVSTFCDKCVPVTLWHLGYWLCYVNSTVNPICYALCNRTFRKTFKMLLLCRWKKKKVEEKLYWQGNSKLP

M3 receptor = target: T3, M3 receptor (Cavia porcellus, UniProt H0W1Z3); assay: Carbachol-induced contraction of the isolated Guinea pig ileum
T3 construct: from tissue; host or cells: isolated guinea pig ileum

Long-Evans derived rats = assay: Porsolt forced swim test; type: in vivo, rat; details: for Mean Immobility Time (% of Total) ± SEM, Day 2 Study: 3 administrations; for Mean Immobility Time (% of Total) ± SEM, Day 4 Study: 7 administrations
Protocol: Performance in the Porsolt forced swim test was evaluated for sertraline and Compound P following protocols outlined in Porsolt R. D., et al., Arch. Int. Pharmacodyn., 229: 327 ([…]).
The Porsolt forced swim test is a model of “behavioral despair”, which has been used as an in vivo model for assessing potential antidepressant-like activity. Both test articles were dissolved in physiological saline (vehicle) and administered intraperitoneally. […] Long-Evans derived rats were used.

5-HT1B = 5-HT1B (Homo sapiens, UniProt P28222); assay: In vitro radioligand binding assay, 5-HT1B
rats = assay: Formalin test, second test with Automated Nociception Analyzer; type: in vivo, rat; details: automated detection; for Number of Flinches, Acute Phase (Mean ± SEM): 0-10 minutes after formalin; for Number of Flinches, Late Phase (Mean ± SEM): 10-60 minutes after formalin
Protocol: In a second test, flinching behaviors were measured for 90 minutes after formalin injection using an automated detection system. […] This device used a magnetic detection system to measure paw movements, called “flinches”. Small metal bands were attached to the left hind paw of rats just before placement into individual circular test chambers 30 minutes prior to formalin injection. […] In addition to duloxetine, morphine (6 mg/kg, subcutaneously) was used as a comparator substance. Animals were treated with morphine 30 minutes prior to the formalin injection. To initiate the experiment, the rats were injected with formalin subcutaneously on the dorsal surface of the left hind paw and placed in the test chambers. The instrument subsequently recorded rapid foot movements counted in one minute epochs.

Rat SNL Model = assay: SNL model of neuropathic pain, mechanical allodynia testing; type: in vivo
Protocol: The animals were anesthetized with isoflurane, the left L5 transverse process was removed, and the L5 and L6 spinal nerves were tightly ligated with 6-0 silk suture. The wound was then closed with internal sutures and external staples. Wound clips were removed 10-11 days following surgery.
Animals were placed on a perforated metallic platform and allowed to acclimate to their surroundings for a minimum of 30 minutes before testing. The mean and standard error of the mean (SEM) were determined for each animal in each treatment group. Since this stimulus is normally not considered painful, significant injury-induced increases in responsiveness in this test are interpreted as a measure of mechanical allodynia. Mechanical allodynia was evaluated 14 days post-surgery.
Ten rats were studied per group and the tests were performed blind. (1R,4S)-4-(3,4-dichlorophenyl)-1,2,3,4-tetrahydro-1-naphthalenamine (P) was evaluated at 3 doses (5, 10 and 15 mg/kg), administered orally and compared with a vehicle control group. Gabapentin (100 mg/kg) and duloxetine (30 mg/kg) administered orally under the same experimental conditions, were used as comparator substances. Mechanical allodynia and hyperalgesia testing were conducted at baseline and 1, 2 and 4 hours after test article administration.

Na^+ Channel Site 2 = assay: In vitro radioligand binding assay, Na+ channel site 2
DA transporter = target: T4, DA transporter (Homo sapiens, UniProt Q01959); assay: Radioligand binding assay, DA transporter ([3H]GBR 12935 displacement); details: human recombinant; [3H]GBR 12935 0.5 nM; read-out: Ki, Dopamine (DA) transporter
T4 construct: expressed in transfected cells
Protocol: The assays measured the affinity of the two compounds for transporters of the monoamines 5-HT, NE and DA. […] The transporters were human recombinant proteins expressed in mammalian cells. Binding to the 5-HT transporter was assessed by evaluating displacement of [^3H]paroxetine (0.1 nM). […] Binding to the NE transporter was assessed by evaluating displacement of [^3H]nisoxetine (0.3 nM).

D1 = D1 (Homo sapiens, UniProt P21728); assay: In vitro radioligand binding assay, D1
5-HT2A = 5-HT2A (Homo sapiens, UniProt P28223); assay: In vitro radioligand binding assay, 5-HT2A
[2] = target: Ca^2+ Channel Verapamil Site; assay: In vitro radioligand binding assay, Ca2+ channel verapamil site

T3 sequence (H0W1Z3 1-590): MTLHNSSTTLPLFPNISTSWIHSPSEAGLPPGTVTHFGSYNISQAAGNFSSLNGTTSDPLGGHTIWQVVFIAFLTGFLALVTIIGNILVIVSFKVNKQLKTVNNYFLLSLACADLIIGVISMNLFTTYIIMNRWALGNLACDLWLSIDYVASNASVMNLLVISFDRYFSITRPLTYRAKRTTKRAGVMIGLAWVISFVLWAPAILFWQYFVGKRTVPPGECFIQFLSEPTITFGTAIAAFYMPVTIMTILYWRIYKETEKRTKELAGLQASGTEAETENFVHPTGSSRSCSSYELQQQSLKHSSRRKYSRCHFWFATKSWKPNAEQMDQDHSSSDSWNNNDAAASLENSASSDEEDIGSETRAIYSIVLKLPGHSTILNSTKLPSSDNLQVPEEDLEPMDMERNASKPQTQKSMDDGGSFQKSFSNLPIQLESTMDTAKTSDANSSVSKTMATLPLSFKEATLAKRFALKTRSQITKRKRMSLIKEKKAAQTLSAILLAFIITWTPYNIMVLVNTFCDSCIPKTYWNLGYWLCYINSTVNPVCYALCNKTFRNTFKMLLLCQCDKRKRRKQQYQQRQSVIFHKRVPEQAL
T4 sequence (Q01959 whole entry): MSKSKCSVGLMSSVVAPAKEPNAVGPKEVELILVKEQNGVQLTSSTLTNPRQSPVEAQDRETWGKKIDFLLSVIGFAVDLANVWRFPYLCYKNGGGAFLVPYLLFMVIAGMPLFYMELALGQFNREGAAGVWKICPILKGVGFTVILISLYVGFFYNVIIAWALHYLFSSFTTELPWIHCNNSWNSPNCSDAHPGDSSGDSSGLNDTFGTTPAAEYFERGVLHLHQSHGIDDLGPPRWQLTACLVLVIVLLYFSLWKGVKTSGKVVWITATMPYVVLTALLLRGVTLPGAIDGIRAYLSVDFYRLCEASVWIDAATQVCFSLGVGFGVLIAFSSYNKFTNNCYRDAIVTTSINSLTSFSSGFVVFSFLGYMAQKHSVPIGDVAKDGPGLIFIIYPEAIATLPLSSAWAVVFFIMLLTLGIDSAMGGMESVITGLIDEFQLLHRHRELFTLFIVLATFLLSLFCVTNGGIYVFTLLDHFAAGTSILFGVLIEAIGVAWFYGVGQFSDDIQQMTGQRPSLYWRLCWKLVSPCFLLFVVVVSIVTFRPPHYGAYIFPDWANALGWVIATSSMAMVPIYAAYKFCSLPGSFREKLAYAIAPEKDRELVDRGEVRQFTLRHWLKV
D1, sequence (P21728 whole entry): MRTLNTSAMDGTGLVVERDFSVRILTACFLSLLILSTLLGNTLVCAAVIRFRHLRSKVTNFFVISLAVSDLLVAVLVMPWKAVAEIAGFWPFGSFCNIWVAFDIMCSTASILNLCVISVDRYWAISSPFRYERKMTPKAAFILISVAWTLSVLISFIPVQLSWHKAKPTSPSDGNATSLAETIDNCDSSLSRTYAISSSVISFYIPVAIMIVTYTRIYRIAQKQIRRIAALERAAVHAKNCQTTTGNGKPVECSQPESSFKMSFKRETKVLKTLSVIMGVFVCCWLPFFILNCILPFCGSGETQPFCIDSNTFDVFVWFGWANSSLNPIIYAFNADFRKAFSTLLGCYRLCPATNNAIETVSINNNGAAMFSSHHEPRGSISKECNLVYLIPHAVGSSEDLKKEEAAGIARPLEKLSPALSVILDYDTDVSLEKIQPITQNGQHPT
5-HT1B, sequence (P28222 whole entry, species assumed): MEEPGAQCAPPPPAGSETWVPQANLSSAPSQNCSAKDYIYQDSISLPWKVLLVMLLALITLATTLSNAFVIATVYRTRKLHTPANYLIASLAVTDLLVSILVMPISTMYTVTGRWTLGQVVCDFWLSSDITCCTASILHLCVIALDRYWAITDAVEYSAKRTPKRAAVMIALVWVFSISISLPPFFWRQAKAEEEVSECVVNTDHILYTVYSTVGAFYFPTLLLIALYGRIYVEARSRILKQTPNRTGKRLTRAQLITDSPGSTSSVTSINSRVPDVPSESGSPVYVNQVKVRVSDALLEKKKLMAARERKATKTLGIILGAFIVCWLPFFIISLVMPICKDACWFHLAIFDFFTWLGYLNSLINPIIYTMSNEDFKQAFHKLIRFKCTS
T1 sequence (P23975 whole entry): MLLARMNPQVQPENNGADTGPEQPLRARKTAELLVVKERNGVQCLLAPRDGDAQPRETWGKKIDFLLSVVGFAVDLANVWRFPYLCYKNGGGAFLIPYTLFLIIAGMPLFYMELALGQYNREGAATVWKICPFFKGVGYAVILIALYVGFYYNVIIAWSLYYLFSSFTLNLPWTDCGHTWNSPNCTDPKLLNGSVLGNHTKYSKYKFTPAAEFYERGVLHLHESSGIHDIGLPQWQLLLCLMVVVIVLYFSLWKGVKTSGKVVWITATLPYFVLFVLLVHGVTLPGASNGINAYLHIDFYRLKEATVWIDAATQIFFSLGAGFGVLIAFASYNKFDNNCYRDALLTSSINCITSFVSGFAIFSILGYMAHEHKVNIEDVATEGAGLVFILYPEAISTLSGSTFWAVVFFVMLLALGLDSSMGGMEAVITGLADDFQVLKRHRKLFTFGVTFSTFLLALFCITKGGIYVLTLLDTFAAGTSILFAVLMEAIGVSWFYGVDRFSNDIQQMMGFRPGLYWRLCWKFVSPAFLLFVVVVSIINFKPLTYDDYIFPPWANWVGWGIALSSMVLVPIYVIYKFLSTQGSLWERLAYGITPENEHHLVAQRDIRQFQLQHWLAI
5-HT2A, sequence (P28223 whole entry, species assumed): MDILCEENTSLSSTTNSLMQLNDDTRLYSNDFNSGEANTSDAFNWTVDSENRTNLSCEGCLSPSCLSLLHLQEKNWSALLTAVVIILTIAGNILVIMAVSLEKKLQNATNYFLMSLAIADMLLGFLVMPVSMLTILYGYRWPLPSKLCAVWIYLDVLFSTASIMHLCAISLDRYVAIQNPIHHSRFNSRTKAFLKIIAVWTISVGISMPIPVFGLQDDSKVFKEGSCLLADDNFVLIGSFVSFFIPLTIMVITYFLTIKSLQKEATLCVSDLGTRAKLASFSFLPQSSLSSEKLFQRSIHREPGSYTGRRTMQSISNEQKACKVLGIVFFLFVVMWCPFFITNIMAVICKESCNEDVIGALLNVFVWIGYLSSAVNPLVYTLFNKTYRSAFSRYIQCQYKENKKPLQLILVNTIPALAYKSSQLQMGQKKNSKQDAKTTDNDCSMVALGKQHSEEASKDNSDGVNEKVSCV

N[C@@H]1CC[C@@H](c2ccc(Cl)c(Cl)c2)c2ccccc21 [Compound P, (1R,4S)-trans 4-(3,4-dichlorophenyl)-1,2,3,4-tetrahydro-1-napthalenamine]
IC50 [1]: 15.6 nM
Ki (M5): 8400 nM
IC50 (M3 receptor; duplicate samples, read-out: IC50 for inhibition of carbachol-induced contraction of the Guinea Pig ileum): 9000 nM
M3 agonist effect on isolated Guinea pig ileum (M3 receptor; graded concentrations, compound alone): no an M3 agonist
Mean Immobility Time (% of Total) ± SEM, Day 2 Study (Long-Evans derived rats; 1.25 mg/kg i.p.): 77 ± 3 % of Total
Mean Immobility Time (% of Total) ± SEM, Day 4 Study (Long-Evans derived rats; 1.25 mg/kg i.p.): 69 ± 4 % of Total
Mean Immobility Time (% of Total) ± SEM, Day 2 Study (Long-Evans derived rats; 2.5 mg/kg i.p.): 48 ± 6 % of Total
Mean Immobility Time (% of Total) ± SEM, Day 4 Study (Long-Evans derived rats; 2.5 mg/kg i.p.): 46 ± 8 % of Total
Mean Immobility Time (% of Total) ± SEM, Day 2 Study (Long-Evans derived rats; 5.0 mg/kg i.p.): 49 ± 5 % of Total
Mean Immobility Time (% of Total) ± SEM, Day 4 Study (Long-Evans derived rats; 5.0 mg/kg i.p.): 19 ± 6 % of Total
Ki (5-HT1B): 1000 nM
Number of Flinches, Acute Phase (Mean ± SEM) (rats; 5 mg/kg PO): 194 ± 33
Number of Flinches, Late Phase (Mean ± SEM) (rats; 5 mg/kg PO): 1263 ± 181
Number of Flinches, Acute Phase (Mean ± SEM) (rats; 10 mg/kg PO): 143 ± 27
Number of Flinches, Late Phase (Mean ± SEM) (rats; 10 mg/kg PO): 1679 ± 163
Number of Flinches, Acute Phase (Mean ± SEM) (rats; 15 mg/kg PO): 212 ± 40
Number of Flinches, Late Phase (Mean ± SEM) (rats; 15 mg/kg PO): 2236 ± 153
Mechanical Allodynia, Paw Withdrawal Threshold (Mean ± SEM) (Rat SNL Model; 5 mg/kg PO, 0 h (Baseline)): 3.1 ± 0.2 g
Mechanical Allodynia, Paw Withdrawal Threshold (Mean ± SEM) (Rat SNL Model; 5 mg/kg PO, 1 h): 3.7 ± 0.3 g
Mechanical Allodynia, Paw Withdrawal Threshold (Mean ± SEM) (Rat SNL Model; 5 mg/kg PO, 2 h): 3.2 ± 0.2 g
Mechanical Allodynia, Paw Withdrawal Threshold (Mean ± SEM) (Rat SNL Model; 5 mg/kg PO, 4 h): 3.9 ± 0.2 g
Mechanical Allodynia, Paw Withdrawal Threshold (Mean ± SEM) (Rat SNL Model; 10 mg/kg PO, 0 h (Baseline)): 2.8 ± 0.2 g
Mechanical Allodynia, Paw Withdrawal Threshold (Mean ± SEM) (Rat SNL Model; 10 mg/kg PO, 1 h): 5.0 ± 0.3 g
Mechanical Allodynia, Paw Withdrawal Threshold (Mean ± SEM) (Rat SNL Model; 10 mg/kg PO, 2 h): 5.7 ± 0.5 g
Mechanical Allodynia, Paw Withdrawal Threshold (Mean ± SEM) (Rat SNL Model; 10 mg/kg PO, 4 h): 6.6 ± 0.4 g
Mechanical Allodynia, Paw Withdrawal Threshold (Mean ± SEM) (Rat SNL Model; 15 mg/kg PO, 0 h (Baseline)): 2.9 ± 0.1 g
Mechanical Allodynia, Paw Withdrawal Threshold (Mean ± SEM) (Rat SNL Model; 15 mg/kg PO, 1 h): 8.8 ± 0.6 g
Mechanical Allodynia, Paw Withdrawal Threshold (Mean ± SEM) (Rat SNL Model; 15 mg/kg PO, 2 h): 7.5 ± 0.5 g
Mechanical Allodynia, Paw Withdrawal Threshold (Mean ± SEM) (Rat SNL Model; 15 mg/kg PO, 4 h): 13.6 ± 0.3 g
Ki (Na^+ Channel Site 2): 1000 nM
Ki (DA transporter): 16 nM
Ki (D1): 6800 nM
Ki (5-HT2A): 720 nM
Ki [2]: 1000 nM

— patent publication US20070282007A1, “TREATMENT OF PAIN DISORDERS WITH trans 4-(3,4-DICHLOROPHENYL)-1,2,3,4-TETRAHYDRO-1-NAPHTHALENAMINE AND ITS FORMAMIDE” (SEPRACOR INC., priority 2006, published 2007)
